Laboratory results as given in patent publication US20100143506A1, “APPARATUS AND METHOD FOR TREATMENT OF MICROORGANISMS DURING SUGAR PRODUCTION AND SUGAR-BASED FE[…]” (priority 2008, published 2010).

How the values were obtained:
bacteria = assay: Plant trial: lactate in the fermentor while the thin juice line is treated with chlorine dioxide
Protocol: A thin juice line at a sugar plant that fed into a distillery for fermentation was treated with chlorine dioxide according to the present method. Previously the thin juice line had been treated using sulfuric acid to decrease the pH. The trial evaluated the bacterial efficacy of chlorine dioxide at an elevated pH in order to reduce sulfuric acid use without causing a detrimental effect to the yeast or fermentation.
In the trial, 90% pure chlorine dioxide solution was generated. Twenty parts per million (ppm) of chlorine dioxide was introduced into the thin juice line. Thin juice samples were collected before during and after the trial. The samples were examined for chlorite, chlorate and chloride residuals.
During the trial, bacterial samples were also collected and analyzed at various locations in the system.
The data indicates a low level of lactate before chlorine dioxide was introduced at the normal pH of 3.5. […] On day 18 the equipment had to be shutdown due to an unrelated issue.

fermentation = conditions: cited from earlier work
Weisella confusa = conditions: cited from earlier work

## [O][Cl+][O-] [chlorine dioxide]
bacteria; Day of Trial 4, Fifth location in the Fermentor
  Lactate Concentration: 0.6 g/L
bacteria; Day of Trial 4, First location in the Fermentor
  Lactate Concentration: 0.39 g/L
bacteria; Day of Trial 4, Fourth location in the Fermentor
  Lactate Concentration: 0.58 g/L
bacteria; Day of Trial 4, Second location in the Fermentor
  Lactate Concentration: 0.6 g/L
bacteria; Day of Trial 4, Third location in the Fermentor
  Lactate Concentration: 0.6 g/L
bacteria; Day of Trial 5, Fifth location in the Fermentor
  Lactate Concentration: 0.75 g/L
bacteria; Day of Trial 5, First location in the Fermentor
  Lactate Concentration: 0.44 g/L
bacteria; Day of Trial 5, Fourth location in the Fermentor
  Lactate Concentration: 0.69 g/L
bacteria; Day of Trial 5, Second location in the Fermentor
  Lactate Concentration: 0.66 g/L
bacteria; Day of Trial 5, Third location in the Fermentor
  Lactate Concentration: 0.71 g/L
bacteria; Day of Trial 6, Fifth location in the Fermentor
  Lactate Concentration: 0.69 g/L
bacteria; Day of Trial 6, First location in the Fermentor
  Lactate Concentration: 0.39 g/L
bacteria; Day of Trial 6, Fourth location in the Fermentor
  Lactate Concentration: 0.71 g/L
bacteria; Day of Trial 6, Second location in the Fermentor
  Lactate Concentration: 0.54 g/L
bacteria; Day of Trial 6, Third location in the Fermentor
  Lactate Concentration: 0.62 g/L
bacteria; Day of Trial 7, Fifth location in the Fermentor
  Lactate Concentration: 0.9 g/L
bacteria; Day of Trial 7, First location in the Fermentor
  Lactate Concentration: 0.51 g/L
bacteria; Day of Trial 7, Fourth location in the Fermentor
  Lactate Concentration: 0.88 g/L
bacteria; Day of Trial 7, Second location in the Fermentor
  Lactate Concentration: 0.76 g/L
bacteria; Day of Trial 7, Third location in the Fermentor
  Lactate Concentration: 0.81 g/L
bacteria; Day of Trial 8, Fifth location in the Fermentor
  Lactate Concentration: 0.75 g/L
bacteria; Day of Trial 8, First location in the Fermentor
  Lactate Concentration: 0.44 g/L
bacteria; Day of Trial 8, Fourth location in the Fermentor
  Lactate Concentration: 0.7 g/L
bacteria; Day of Trial 8, Second location in the Fermentor
  Lactate Concentration: 0.55 g/L
bacteria; Day of Trial 8, Third location in the Fermentor
  Lactate Concentration: 0.64 g/L
bacteria; Day of Trial 9, Fifth location in the Fermentor
  Lactate Concentration: 0.83 g/L
bacteria; Day of Trial 9, First location in the Fermentor
  Lactate Concentration: 0.5 g/L
bacteria; Day of Trial 9, Fourth location in the Fermentor
  Lactate Concentration: 0.78 g/L
bacteria; Day of Trial 9, Second location in the Fermentor
  Lactate Concentration: 0.68 g/L
bacteria; Day of Trial 9, Third location in the Fermentor
  Lactate Concentration: 0.74 g/L
bacteria; Day of Trial 10, Fifth location in the Fermentor
  Lactate Concentration: 0.84 g/L
bacteria; Day of Trial 10, First location in the Fermentor
  Lactate Concentration: 0.55 g/L
bacteria; Day of Trial 10, Fourth location in the Fermentor
  Lactate Concentration: 0.83 g/L
bacteria; Day of Trial 10, Second location in the Fermentor
  Lactate Concentration: 0.77 g/L
bacteria; Day of Trial 10, Third location in the Fermentor
  Lactate Concentration: 0.82 g/L
bacteria; Day of Trial 11, Fifth location in the Fermentor
  Lactate Concentration: 0.8 g/L
bacteria; Day of Trial 11, First location in the Fermentor
  Lactate Concentration: 0.4 g/L
bacteria; Day of Trial 11, Fourth location in the Fermentor
  Lactate Concentration: 0.65 g/L
bacteria; Day of Trial 11, Second location in the Fermentor
  Lactate Concentration: 0.5 g/L
bacteria; Day of Trial 11, Third location in the Fermentor
  Lactate Concentration: 0.55 g/L
bacteria; Day of Trial 13, Fifth location in the Fermentor
  Lactate Concentration: 0.42 g/L
bacteria; Day of Trial 13, First location in the Fermentor
  Lactate Concentration: 0.22 g/L
bacteria; Day of Trial 13, Fourth location in the Fermentor
  Lactate Concentration: 0.39 g/L
bacteria; Day of Trial 13, Second location in the Fermentor
  Lactate Concentration: 0.33 g/L
bacteria; Day of Trial 13, Third location in the Fermentor
  Lactate Concentration: 0.36 g/L
bacteria; Day of Trial 14, Fifth location in the Fermentor
  Lactate Concentration: 0.51 g/L
bacteria; Day of Trial 14, First location in the Fermentor
  Lactate Concentration: 0.22 g/L
bacteria; Day of Trial 14, Fourth location in the Fermentor
  Lactate Concentration: 0.4 g/L
bacteria; Day of Trial 14, Second location in the Fermentor
  Lactate Concentration: 0.36 g/L
bacteria; Day of Trial 14, Third location in the Fermentor
  Lactate Concentration: 0.37 g/L
bacteria; Day of Trial 15, Fifth location in the Fermentor
  Lactate Concentration: 0.5 g/L
bacteria; Day of Trial 15, First location in the Fermentor
  Lactate Concentration: 0.22 g/L
bacteria; Day of Trial 15, Fourth location in the Fermentor
  Lactate Concentration: 0.4 g/L
bacteria; Day of Trial 15, Second location in the Fermentor
  Lactate Concentration: 0.32 g/L
bacteria; Day of Trial 15, Third location in the Fermentor
  Lactate Concentration: 0.34 g/L
bacteria; Day of Trial 16, Fifth location in the Fermentor
  Lactate Concentration: 0.6 g/L
bacteria; Day of Trial 16, First location in the Fermentor
  Lactate Concentration: 0.3 g/L
bacteria; Day of Trial 16, Fourth location in the Fermentor
  Lactate Concentration: 0.5 g/L
bacteria; Day of Trial 16, Second location in the Fermentor
  Lactate Concentration: 0.4 g/L
bacteria; Day of Trial 16, Third location in the Fermentor
  Lactate Concentration: 0.45 g/L
bacteria; Day of Trial 17, Fifth location in the Fermentor
  Lactate Concentration: 0.67 g/L
bacteria; Day of Trial 17, First location in the Fermentor
  Lactate Concentration: 0.29 g/L
bacteria; Day of Trial 17, Fourth location in the Fermentor
  Lactate Concentration: 0.57 g/L
bacteria; Day of Trial 17, Second location in the Fermentor
  Lactate Concentration: 0.43 g/L
bacteria; Day of Trial 17, Third location in the Fermentor
  Lactate Concentration: 0.5 g/L
bacteria; Day of Trial 18, Fifth location in the Fermentor
  Lactate Concentration: 0.62 g/L
bacteria; Day of Trial 18, First location in the Fermentor
  Lactate Concentration: 0.43 g/L
bacteria; Day of Trial 18, Fourth location in the Fermentor
  Lactate Concentration: 0.6 g/L
bacteria; Day of Trial 18, Second location in the Fermentor
  Lactate Concentration: 0.48 g/L
bacteria; Day of Trial 18, Third location in the Fermentor
  Lactate Concentration: 0.54 g/L
bacteria; Day of Trial 19, Fifth location in the Fermentor
  Lactate Concentration: 1.1 g/L
bacteria; Day of Trial 19, First location in the Fermentor
  Lactate Concentration: 0.4 g/L
bacteria; Day of Trial 19, Fourth location in the Fermentor
  Lactate Concentration: 0.8 g/L
bacteria; Day of Trial 19, Second location in the Fermentor
  Lactate Concentration: 0.6 g/L
bacteria; Day of Trial 19, Third location in the Fermentor
  Lactate Concentration: 0.7 g/L
bacteria; Day of Trial 20, Fifth location in the Fermentor
  Lactate Concentration: 0.85 g/L
bacteria; Day of Trial 20, First location in the Fermentor
  Lactate Concentration: 0.55 g/L
bacteria; Day of Trial 20, Fourth location in the Fermentor
  Lactate Concentration: 0.5 g/L
bacteria; Day of Trial 20, Second location in the Fermentor
  Lactate Concentration: 0.7 g/L
bacteria; Day of Trial 20, Third location in the Fermentor
  Lactate Concentration: 0.75 g/L
bacteria; Day of Trial 21, Fifth location in the Fermentor
  Lactate Concentration: 1.36 g/L
bacteria; Day of Trial 21, First location in the Fermentor
  Lactate Concentration: 0.9 g/L
bacteria; Day of Trial 21, Fourth location in the Fermentor
  Lactate Concentration: 1.35 g/L
bacteria; Day of Trial 21, Second location in the Fermentor
  Lactate Concentration: 1.16 g/L
bacteria; Day of Trial 21, Third location in the Fermentor
  Lactate Concentration: 1.24 g/L
bacteria; Day of Trial 22, Fifth location in the Fermentor
  Lactate Concentration: 1.66 g/L
bacteria; Day of Trial 22, First location in the Fermentor
  Lactate Concentration: 1.31 g/L
bacteria; Day of Trial 22, Fourth location in the Fermentor
  Lactate Concentration: 2.04 g/L
bacteria; Day of Trial 22, Second location in the Fermentor
  Lactate Concentration: 1.73 g/L
bacteria; Day of Trial 22, Third location in the Fermentor
  Lactate Concentration: 2.01 g/L
bacteria; Day of Trial 23, Fifth location in the Fermentor
  Lactate Concentration: 2.15 g/L
bacteria; Day of Trial 23, First location in the Fermentor
  Lactate Concentration: 1.39 g/L
bacteria; Day of Trial 23, Fourth location in the Fermentor
  Lactate Concentration: 2.19 g/L
bacteria; Day of Trial 23, Second location in the Fermentor
  Lactate Concentration: 1.75 g/L
bacteria; Day of Trial 23, Third location in the Fermentor
  Lactate Concentration: 2.01 g/L
bacteria; Day of Trial 24, Fifth location in the Fermentor
  Lactate Concentration: 2.13 g/L
bacteria; Day of Trial 24, First location in the Fermentor
  Lactate Concentration: 1.12 g/L
bacteria; Day of Trial 24, Fourth location in the Fermentor
  Lactate Concentration: 2 g/L
bacteria; Day of Trial 24, Second location in the Fermentor
  Lactate Concentration: 1.41 g/L
bacteria; Day of Trial 24, Third location in the Fermentor
  Lactate Concentration: 1.73 g/L
bacteria; chlorine dioxide at 20 ppm with a pH elevation to 4
  lactate trend once treatment was started: trended downward

## Virginiamycin
fermentation
  concentration that will suppress fermentation: over 6 mg/L
Weisella confusa
  concentration required to inhibit growth of Weisella confusa: over 25 mg/L
